The supplement of paper PMC10307832

Legend:
Assay in all cases: relative viability (nuclei count vs DMSO), 5 days (fraction); higher = more cells survive
NCI-H1650 = system: NCI-H1650
Outline: (§1)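 Relative viability was taken as the ratio of nuclei in treated wells to nuclei in vehicle wells. Lung cancer cell lines in 1536-well plates received compounds by pin tool one day after seeding, either one drug alone or a fixed anchor-drug dose plus five library-drug doses (not always all listed) in √10 steps. Nuclei were counted on 4× images after 5 days of treatment, and values are medians of duplicate plates.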

NCI-H441 = system: NCI-H441
Outline: as §1

LC-2-ad = system: LC-2-ad
Outline: as §1

LCLC-97TM1 = system: LCLC-97TM1
Outline: as §1

PC-3 [JPC-3] = system: PC-3 [JPC-3]
Outline: as §1

CAL-12T = system: CAL-12T
Outline: as §1

NCI-H2087 = system: NCI-H2087
Outline: as §1

NCI-H2023 = system: NCI-H2023
Outline: as §1

201T = system: 201T
Outline: as §1

BEN = system: BEN
Outline: as §1

H3255 = system: H3255
Outline: as §1

NCI-H661 = system: NCI-H661
Outline: as §1

NCI-H1651 = system: NCI-H1651
Outline: as §1

NCI-H650 = system: NCI-H650
Outline: as §1

NCI-H596 = system: NCI-H596
Outline: as §1

NCI-H460 = system: NCI-H460
Outline: as §1

NCI-H727 = system: NCI-H727
Outline: as §1

NCI-H520 = system: NCI-H520
Outline: as §1

ABC-1 = system: ABC-1
Outline: as §1

NCI-H1915 = system: NCI-H1915
Outline: as §1

NCI-H1944 = system: NCI-H1944
Outline: as §1

A-427 = system: A-427
Outline: as §1

CC(=O)O[C@@]12CO[C@@H]1C[C@H](O)[C@@]1(C)C(=O)[C@H](O)C3=C(C)[C@@H](OC(=O)[C@H](O)[C@@H](NC(=O)OC(C)(C)C)c4ccccc4)C[C@@](O)([C@@H](OC(=O)c4ccccc4)[C@H]21)C3(C)C [Docetaxel] + CS(=O)(=O)N1CCN(Cc2cc3nc(-c4cccc5[nH]ncc45)nc(N4CCOCC4)c3s2)CC1 [Pictilisib] (partner 1 µM)
relative viability (NCI-H1650; first compound 0.0002 µM): 0.431 | relative viability (NCI-H1650; first compound 0.000632 µM): 0.289 | relative viability (NCI-H1650; first compound 0.002 µM): 0.241 | relative viability (NCI-H1650; first compound 0.006325 µM): 0.146 | relative viability (NCI-H1650; first compound 0.02 µM): 0.13 | relative viability (NCI-H441; first compound 0.0002 µM): 0.352 | relative viability (NCI-H441; first compound 0.000632 µM): 0.32 | relative viability (NCI-H441; first compound 0.002 µM): 0.198 | relative viability (NCI-H441; first compound 0.006325 µM): 0.177 | relative viability (NCI-H441; first compound 0.02 µM): 0.11 | relative viability (LC-2-ad; first compound 0.0002 µM): 0.29 | relative viability (LC-2-ad; first compound 0.002 µM): 0.106 | relative viability (LC-2-ad; first compound 0.006325 µM): 0.113 | relative viability (LC-2-ad; first compound 0.02 µM): 0.0847 | relative viability (LCLC-97TM1; first compound 0.000632 µM): 0.206 | relative viability (LCLC-97TM1; first compound 0.002 µM): 0.113 | relative viability (LCLC-97TM1; first compound 0.006325 µM): 0.112 | relative viability (LCLC-97TM1; first compound 0.02 µM): 0.102 | relative viability (PC-3 [JPC-3]; first compound 0.0002 µM): 0.693 | relative viability (PC-3 [JPC-3]; first compound 0.000632 µM): 0.715 | relative viability (PC-3 [JPC-3]; first compound 0.002 µM): 0.454 | relative viability (PC-3 [JPC-3]; first compound 0.006325 µM): 0.329 | relative viability (PC-3 [JPC-3]; first compound 0.02 µM): 0.229 | relative viability (CAL-12T; first compound 0.0002 µM): 0.53 | relative viability (CAL-12T; first compound 0.000632 µM): 0.271 | relative viability (CAL-12T; first compound 0.002 µM): 0.268 | relative viability (CAL-12T; first compound 0.006325 µM): 0.24 | relative viability (CAL-12T; first compound 0.02 µM): 0.171 | relative viability (NCI-H2087; first compound 0.0002 µM): 0.841 | relative viability (NCI-H2087; first compound 0.000632 µM): 0.631 | relative viability (NCI-H2087; first compound 0.002 µM): 0.284 | relative viability (NCI-H2087; first compound 0.006325 µM): 0.34 | relative viability (NCI-H2087; first compound 0.02 µM): 0.193 | relative viability (NCI-H2023; first compound 0.0002 µM): 0.213 | relative viability (NCI-H2023; first compound 0.000632 µM): 0.188 | relative viability (NCI-H2023; first compound 0.002 µM): 0.142 | relative viability (NCI-H2023; first compound 0.006325 µM): 0.11 | relative viability (NCI-H2023; first compound 0.02 µM): 0.0766 | relative viability (201T; first compound 0.0002 µM): 0.683 | relative viability (201T; first compound 0.000632 µM): 0.672 | relative viability (201T; first compound 0.002 µM): 0.557 | relative viability (201T; first compound 0.006325 µM): 0.567 | relative viability (201T; first compound 0.02 µM): 0.289 | relative viability (BEN; first compound 0.0002 µM): 0.479 | relative viability (BEN; first compound 0.000632 µM): 0.504 | relative viability (BEN; first compound 0.006325 µM): 0.23 | relative viability (BEN; first compound 0.02 µM): 0.169 | relative viability (H3255; first compound 0.0002 µM): 0.395 | relative viability (H3255; first compound 0.000632 µM): 0.544 | relative viability (H3255; first compound 0.002 µM): 0.272 | relative viability (H3255; first compound 0.006325 µM): 0.21 | relative viability (H3255; first compound 0.02 µM): 0.195 | relative viability (NCI-H661; first compound 0.0002 µM): 0.356 | relative viability (NCI-H661; first compound 0.000632 µM): 0.387 | relative viability (NCI-H661; first compound 0.002 µM): 0.341 | relative viability (NCI-H661; first compound 0.006325 µM): 0.296 | relative viability (NCI-H661; first compound 0.02 µM): 0.278 | relative viability (NCI-H1651; first compound 0.0002 µM): 0.477 | relative viability (NCI-H1651; first compound 0.000632 µM): 0.443 | relative viability (NCI-H1651; first compound 0.002 µM): 0.206 | relative viability (NCI-H1651; first compound 0.006325 µM): 0.095 | relative viability (NCI-H1651; first compound 0.02 µM): 0.0784 | relative viability (NCI-H650; first compound 0.0002 µM): 0.75 | relative viability (NCI-H650; first compound 0.000632 µM): 0.48 | relative viability (NCI-H650; first compound 0.002 µM): 0.313 | relative viability (NCI-H650; first compound 0.006325 µM): 0.274 | relative viability (NCI-H650; first compound 0.02 µM): 0.207 | relative viability (NCI-H596; first compound 0.0002 µM): 0.405 | relative viability (NCI-H596; first compound 0.000632 µM): 0.252 | relative viability (NCI-H596; first compound 0.002 µM): 0.452 | relative viability (NCI-H596; first compound 0.006325 µM): 0.297 | relative viability (NCI-H596; first compound 0.02 µM): 0.256 | relative viability (NCI-H460; first compound 0.0002 µM): 0.351 | relative viability (NCI-H460; first compound 0.000632 µM): 0.3 | relative viability (NCI-H460; first compound 0.002 µM): 0.144 | relative viability (NCI-H460; first compound 0.006325 µM): 0.0682 | relative viability (NCI-H460; first compound 0.02 µM): 0.0373 | relative viability (NCI-H727; first compound 0.0002 µM): 0.309 | relative viability (NCI-H727; first compound 0.000632 µM): 0.4 | relative viability (NCI-H727; first compound 0.002 µM): 0.255 | relative viability (NCI-H727; first compound 0.006325 µM): 0.213 | relative viability (NCI-H727; first compound 0.02 µM): 0.182 | relative viability (NCI-H520; first compound 0.0002 µM): 0.274 | relative viability (NCI-H520; first compound 0.000632 µM): 0.27 | relative viability (NCI-H520; first compound 0.002 µM): 0.239 | relative viability (NCI-H520; first compound 0.006325 µM): 0.231 | relative viability (NCI-H520; first compound 0.02 µM): 0.157 | relative viability (ABC-1; first compound 0.0002 µM): 0.772 | relative viability (ABC-1; first compound 0.000632 µM): 0.685 | relative viability (ABC-1; first compound 0.002 µM): 0.442 | relative viability (ABC-1; first compound 0.006325 µM): 0.304 | relative viability (ABC-1; first compound 0.02 µM): 0.253 | relative viability (NCI-H1915; first compound 0.0002 µM): 0.857 | relative viability (NCI-H1915; first compound 0.000632 µM): 0.931 | relative viability (NCI-H1915; first compound 0.002 µM): 0.275 | relative viability (NCI-H1915; first compound 0.006325 µM): 0.257 | relative viability (NCI-H1915; first compound 0.02 µM): 0.11 | relative viability (NCI-H1944; first compound 0.0002 µM): 0.338 | relative viability (NCI-H1944; first compound 0.000632 µM): 0.368 | relative viability (NCI-H1944; first compound 0.002 µM): 0.318 | relative viability (NCI-H1944; first compound 0.006325 µM): 0.322 | relative viability (NCI-H1944; first compound 0.02 µM): 0.178 | relative viability (A-427; first compound 0.0002 µM): 0.766 | relative viability (A-427; first compound 0.000632 µM): 0.885 | relative viability (A-427; first compound 0.002 µM): 0.488 | relative viability (A-427; first compound 0.006325 µM): 0.23 | relative viability (A-427; first compound 0.02 µM): 0.158
